{
  "source": "patent US20100196363A1",
  "about": "“CANCER TREATMENT COMBINATION THERAPY COMPRISING VINFLUNINE AND TRASTUZUMAB” (Pierre Fabre Medicament, priority 2007, published 2010)",
  "origin": "cited, not measured here",
  "tested_on": "breast cancer",
  "conditions": "vinflunine alone, same dosage, regimen and period; breast cancer patients",
  "data": [
    {"smiles": "CC[C@]12C=CCN3CC[C@@]4(c5cc([C@@]6(C(=O)OC)C[C@@H]7C[C@@H](C(C)(F)F)CN(Cc8c6[nH]c6ccccc86)C7)c(OC)cc5N(C)[C@H]4[C@@](O)(C(=O)OC)[C@@H]1OC(C)=O)[C@@H]32", "note": "[Vinflunine, 20′,20′difluoro-3′,4′-dihydrovinorelbine]", "values": [
      {"measurement": "Overall Response (RECIST)", "result": "about 30%"}
    ]}
  ]
}
